Target: T1, human NHE-1 (Homo sapiens, UniProt P19634)
T1 construct: expressed in transfected cells; host or cells: LAP-1 (NHE-deficient parental cell line), stably transfected, G418 selection
Test: FLIPR assay of pHi recovery for NHE-1 inhibition
Format: cell-based
Conditions: transfected LAP-1 cell line expressing human NHE-1, BCECF pHi recovery, read-out: NHE1 inhibition IC50
Method: The inhibitory concentration IC50 for NHE-1 inhibition was determined as follows:
IC50 for NHE-1 inhibition were determined in a FLIPR assay by measurement of the recovery in pHi in transfected cell lines which express human NHE-1.
The assay was carried out in an FLIPR (fluorescent imaging plate reader) with black-walled 96-well microtiter plates with clear bases.
The growth medium for the transfected cells (Iscove+10% fetal calf serum) additionally contained G418 as selection antibiotic in order to ensure the presence of the transfected sequences.
The actual assay started with the removal of the growth medium and addition of 100 μl of loading buffer per well (5 μM BCECF-AM [2′,7′-bis(carboxyethyl)-5-(and -6-)carboxyfluorescein, acetoxymethyl ester] in 20 mM NH4Cl, 115 mM choline chloride, 1 mM MgCl2, 1 mM CaCl2, 5 mM KCl, 20 mM HEPES, 5 mM glucose; pH 7.4 [adjusted with KOH]). The cells were then incubated at 37° C. for 20 minutes. This incubation led to loading of the cells with the fluorescent dye whose fluorescence intensity depends on pHi, and with NH4Cl which makes the cells slightly alkaline. The nonfluorescent dye precursor BCECF-AM is, as ester, membrane-permeable. The actual dye BCECF is not membrane-permeable but is liberated inside cells by esterases. […]

T1 sequence (P19634 whole entry): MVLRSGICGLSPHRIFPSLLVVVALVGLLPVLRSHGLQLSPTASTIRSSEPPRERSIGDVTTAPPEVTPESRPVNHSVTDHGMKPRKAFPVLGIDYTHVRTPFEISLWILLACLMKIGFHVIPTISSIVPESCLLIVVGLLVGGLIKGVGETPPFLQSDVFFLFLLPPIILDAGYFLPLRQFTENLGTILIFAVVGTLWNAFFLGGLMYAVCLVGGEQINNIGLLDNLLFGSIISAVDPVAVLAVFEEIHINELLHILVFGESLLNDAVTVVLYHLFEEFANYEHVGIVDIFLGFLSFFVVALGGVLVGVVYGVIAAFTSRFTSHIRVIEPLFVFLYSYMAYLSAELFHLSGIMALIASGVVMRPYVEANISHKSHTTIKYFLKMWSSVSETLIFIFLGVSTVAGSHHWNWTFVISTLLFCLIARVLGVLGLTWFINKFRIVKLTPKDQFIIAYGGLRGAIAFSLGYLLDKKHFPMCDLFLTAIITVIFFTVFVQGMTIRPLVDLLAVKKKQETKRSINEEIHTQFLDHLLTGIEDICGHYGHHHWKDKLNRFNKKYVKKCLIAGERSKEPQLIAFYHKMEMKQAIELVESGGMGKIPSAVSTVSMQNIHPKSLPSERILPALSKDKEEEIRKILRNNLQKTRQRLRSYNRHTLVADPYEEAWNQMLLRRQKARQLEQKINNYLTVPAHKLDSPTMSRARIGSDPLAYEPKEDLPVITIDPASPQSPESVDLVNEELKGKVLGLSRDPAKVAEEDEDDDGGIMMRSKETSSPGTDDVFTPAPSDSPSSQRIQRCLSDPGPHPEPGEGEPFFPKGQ

- IC50: 33 nM
Structure (SMILES): Cc1cc(Oc2ccc(S(C)(=O)=O)c(S(F)(F)(F)(F)F)c2)c(S(C)(=O)=O)cc1C(=O)N=C(N)N [Example 1, N-[5-methanesulfonyl-4-(4-methanesulfonyl-3-pentafluorosulfanyl-phenoxy)-2-methylbenzoyl]guanidine]

Source: patent US7446225B2, “Pentafluorosulfanylphenyl-substituted benzoylguanidines, method for the production thereof, their use as a medicament or diagnostic agent, and a medicament containing these compounds” (Sanofi-aventis Deutschland GmbH, priority 2004, dated 2008)
